{"source": "patent US8258114B2", "about": "“Modulation of glucose-6-phosphatase translocase expression” (Isis Pharmaceuticals, Inc., priority 2004, dated 2012)", "key": {"[1]": {"tested_on": "mouse glucose-6-phosphatase translocase mRNA", "test": "Antisense inhibition of mouse glucose-6-phosphatase translocase mRNA in primary mouse hepatocytes, 50 nM (Table 5)", "type": "cell-based", "conditions": "50 nM oligonucleotide, mRNA by real-time PCR, normalized with RIBOGREEN"}, "[2]": {"tested_on": "aged Zucker fa/fa rats", "test": "Oral glucose tolerance test in ZDF rats (Table 17)", "type": "in vivo, rat", "conditions": "alone or with Rosi", "procedure": "(§1) Saline-injected animals served as a control treatment group.\nTo further evaluate the effects of ISIS 366228 alone or in combination with rosiglitazone, oral glucose tolerance tests were performed during the third week of treatment. To provide a baseline glucose level, fasted blood glucose levels were measured before the challenge. Glucose was administered by oral gavage via an 18 gauge gavage needle at a dose of 1 g/kg. Plasma glucose levels were measured for 15, 30, 60, 90, and 120 minutes post-challenge, using a glucose analyzer (for example, an Ascencia Glucometer Elite XL, Bayer, Tarrytown, N.Y.)."}, "[3]": {"conditions": "rat, in vivo", "method": "For three weeks, male Sprague-Dawley rats were injected twice-weekly with doses of 12.5 mg/kg, 25 mg/kg, or 50 mg/kg of ISIS 145760, ISIS 359543, or ISIS 366228. Each treatment group was comprised of 4 animals. Animals which received twice weekly injections of saline served as controls.\nBody weight was monitored throughout the study period. […] Tissue weights were also measured at the end of the study."}, "[4]": {"conditions": "rat, in vivo", "remark": "listed apart in the source"}, "[5]": {"tested_on": "glucose-6-phosphatase translocase mRNA", "test": "Target reduction in liver: rat dose-response study (Table 12)", "type": "in vivo", "conditions": "Sprague-Dawley rats; for % Inhibition, target reduction in liver: three weeks", "procedure": "Each treatment group was comprised of 4 animals.\nAt the end of the treatment period, animals were sacrificed and target reduction in liver was measured by real-time PCR as described in other examples herein. Results are shown in Table 12 as the average percent reduction in glucose-6-phosphatase translocase levels as compared to saline treated control."}, "[6]": {"conditions": "rat, in vivo", "remark": "listed apart in the source", "method": "(§2) Male Zucker fa/fa rats, about 17 to 18 weeks of age, purchased from Charles River Laboratories (Wilmington, Mass.), are maintained on a normal rodent diet. Animals are placed into treatment groups of 8 animals each. […] Another treatment group received the food-administered daily doses of 3 mg/kg of rosiglitazone alone. Saline-injected animals served as a control treatment group.\nAlso monitored throughout the study was body composition. Baseline body composition was measured by MRI prior to the start of treatment (BL). Body composition was also measured during week 3 (Wk 3) and during week 5 (Wk 5) of treatment."}, "[7]": {"conditions": "rat, in vivo", "remark": "listed apart in the source", "method": "as §2\nThe liver transaminases, ALT and AST, were measured throughout the study."}, "[8]": {"tested_on": "catalytic subunit of glucose-6-phosphatase (G6PC) mRNA", "test": "Reduction of catalytic subunit of glucose-6-phosphatase (G6PC) mRNA in liver or kidney of ZDF rats (Table 15)", "type": "in vivo, rat", "conditions": "alone or with rosiglitazone 3 mg/kg daily", "procedure": "as §1\nAt the end of the treatment period, animals were sacrificed and target reduction in liver and kidney were measured by real-time PCR as described in other examples herein. Also measured were reductions in the catalytic subunit of glucose-6-phosphatase (G6PC) using a primer-probe set designed to hybridize to that mRNA. For example, the following primer-probe set was designed to hybridize to rat glucose-6-phosphatase translocase sequences cited in Table 1:\nResults for each treatment group are shown in Table 15 as the average percent reduction in glucose-6-phosphatase translocase levels or in G6PC as compared to saline treated control."}, "[9]": {"conditions": "ISIS 366228 12.5 mg/kg twice weekly"}, "[10]": {"conditions": "ISIS 366228 25 mg/kg twice weekly"}}, "note": "Where two headings read alike, the source gives them in different places."}
{"sequence": "GCTCCATAGCGAGGACTCGA (chemistry not given here) [ISIS 148985]", "values": [{"measurement": "% Inhib", "setting": "[1]", "result": "approximately 84%"}, {"measurement": "% Inhib", "setting": "[1]; listed as 148985", "result": 84, "unit": "%"}]}
{"sequence": "GTGCTTGGCGATGGTACTGA (chemistry not given here) [ISIS 366228]", "values": [{"measurement": "plasma glucose, OGTT", "setting": "[2]; week 3, ISIS 366228 12.5 mg/kg, 0 min (fasted)", "result": 317, "unit": "mg/dL"}, {"measurement": "plasma glucose, OGTT", "setting": "[2]; week 3, ISIS 366228 12.5 mg/kg, 15 min", "result": 418, "unit": "mg/dL"}, {"measurement": "plasma glucose, OGTT", "setting": "[2]; week 3, ISIS 366228 12.5 mg/kg, 30 min", "result": 553, "unit": "mg/dL"}, {"measurement": "plasma glucose, OGTT", "setting": "[2]; week 3, ISIS 366228 12.5 mg/kg, 60 min", "result": 485, "unit": "mg/dL"}, {"measurement": "plasma glucose, OGTT", "setting": "[2]; week 3, ISIS 366228 12.5 mg/kg, 90 min", "result": 441, "unit": "mg/dL"}, {"measurement": "plasma glucose, OGTT", "setting": "[2]; week 3, ISIS 366228 12.5 mg/kg, 120 min", "result": 444, "unit": "mg/dL"}, {"measurement": "plasma glucose, OGTT", "setting": "[2]; week 3, ISIS 366228 25 mg/kg, 0 min (fasted)", "result": 303, "unit": "mg/dL"}, {"measurement": "plasma glucose, OGTT", "setting": "[2]; week 3, ISIS 366228 25 mg/kg, 15 min", "result": 453, "unit": "mg/dL"}, {"measurement": "plasma glucose, OGTT", "setting": "[2]; week 3, ISIS 366228 25 mg/kg, 30 min", "result": 540, "unit": "mg/dL"}, {"measurement": "plasma glucose, OGTT", "setting": "[2]; week 3, ISIS 366228 25 mg/kg, 60 min", "result": 461, "unit": "mg/dL"}, {"measurement": "plasma glucose, OGTT", "setting": "[2]; week 3, ISIS 366228 25 mg/kg, 90 min", "result": 427, "unit": "mg/dL"}, {"measurement": "plasma glucose, OGTT", "setting": "[2]; week 3, ISIS 366228 25 mg/kg, 120 min", "result": 408, "unit": "mg/dL"}, {"measurement": "Fat weight", "setting": "[3]; 12.5 mg/kg", "result": 1.6, "unit": "grams"}, {"measurement": "Fat weight", "setting": "[3]; 25 mg/kg", "result": 1.5, "unit": "grams"}, {"measurement": "Fat weight", "setting": "[3]; 50 mg/kg", "result": 1.1, "unit": "grams"}, {"measurement": "Kidney weight", "setting": "[3]; 50 mg/kg", "result": 3, "unit": "grams"}, {"measurement": "Liver weight", "setting": "[3]; 50 mg/kg", "result": 15, "unit": "grams"}, {"measurement": "Spleen weight", "setting": "[3]; 50 mg/kg", "result": 1.1, "unit": "grams"}, {"measurement": "body weight (in words)", "setting": "[4]", "result": "did not cause increased body weight"}, {"measurement": "% Inhibition, target reduction in liver", "setting": "[5]; 12.5 mg/kg twice weekly", "result": 69, "unit": "%"}, {"measurement": "% Inhibition, target reduction in liver", "setting": "[5]; 25 mg/kg twice weekly", "result": 82, "unit": "%"}, {"measurement": "% Inhibition, target reduction in liver", "setting": "[5]; 50 mg/kg twice weekly", "result": 90, "unit": "%"}, {"measurement": "target mRNA levels in rat liver (in words)", "setting": "[5]; 12.5 to 50 mg/kg", "result": "effective in reducing target mRNA levels in rat liver in a dose-dependent manner"}, {"measurement": "body fat percentage (in words)", "setting": "[6]", "result": "did not cause marked increases in body fat percentage"}, {"measurement": "liver transaminases ALT and AST (in words)", "setting": "[7]", "result": "reductions in levels of these indicators of liver function"}, {"measurement": "% Inhibition of G6PC, Kidney", "setting": "[8]; [9]", "result": 17, "unit": "%"}, {"measurement": "% Inhibition of G6PC, Liver", "setting": "[8]; [9]", "result": 39, "unit": "%"}, {"measurement": "% Inhibition of G6PC, Kidney", "setting": "[8]; [10]", "result": 33, "unit": "%"}, {"measurement": "% Inhibition of G6PC, Liver", "setting": "[8]; [10]", "result": 0, "unit": "%"}]}
{"sequence": "TATACAAGTCGGTTTGCCCT (chemistry not given here) [ISIS 149008]", "values": [{"measurement": "% Inhib", "setting": "[1]", "result": "~65", "unit": "%"}]}
